According to patent publication US6426331B1, “Inhibitors of STAT function” (Tularik Inc., priority 1998, dated 2002):

What follows are molecules tested against T1, STAT6 (Homo sapiens, UniProt P42226) (assay: Inhibition of STAT6 binding (duplex formation)). Details: Table 4; STAT6 binding.
T1 sequence (P42226 1-847): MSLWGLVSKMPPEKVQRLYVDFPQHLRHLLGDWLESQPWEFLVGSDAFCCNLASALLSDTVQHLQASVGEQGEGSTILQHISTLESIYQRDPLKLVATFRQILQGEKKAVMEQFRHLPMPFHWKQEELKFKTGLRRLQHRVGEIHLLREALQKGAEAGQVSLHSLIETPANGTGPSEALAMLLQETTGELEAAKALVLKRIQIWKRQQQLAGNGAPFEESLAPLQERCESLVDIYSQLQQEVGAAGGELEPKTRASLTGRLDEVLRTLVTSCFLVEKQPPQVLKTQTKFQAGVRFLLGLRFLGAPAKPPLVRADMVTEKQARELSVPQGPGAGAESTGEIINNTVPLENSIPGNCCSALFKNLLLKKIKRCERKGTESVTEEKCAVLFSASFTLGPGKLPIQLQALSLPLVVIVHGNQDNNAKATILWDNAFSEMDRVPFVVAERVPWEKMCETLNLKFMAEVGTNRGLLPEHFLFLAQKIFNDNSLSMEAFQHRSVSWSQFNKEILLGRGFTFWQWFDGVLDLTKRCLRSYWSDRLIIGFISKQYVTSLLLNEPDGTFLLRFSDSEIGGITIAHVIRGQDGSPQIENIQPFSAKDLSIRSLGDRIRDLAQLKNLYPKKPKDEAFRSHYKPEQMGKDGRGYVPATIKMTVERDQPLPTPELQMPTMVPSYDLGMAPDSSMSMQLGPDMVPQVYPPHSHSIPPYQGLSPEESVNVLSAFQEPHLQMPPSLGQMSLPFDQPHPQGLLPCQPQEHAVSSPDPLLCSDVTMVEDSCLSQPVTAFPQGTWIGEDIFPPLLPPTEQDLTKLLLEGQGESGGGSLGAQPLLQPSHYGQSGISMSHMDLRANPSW
Experimental: The compounds of the present invention can be evaluated for STAT binding activity using methods such as those described in U.S. Pat. No. 6,207,391 (for STAT6 binding). Other assays for STAT binding can be found in, for example, U.S. Pat. Nos. 5,618,693, 5,639,858 and 5,756,700.
Using methods similar to those described in Examples 1 and 2, the compounds provided in Table 1 were prepared and evaluated as inhibitors of STAT6 binding (duplex formation). The assay is described in U.S. Pat. No. 6,207,391, filed Mar. 31, 1998. In each of the tables below: a + symbol indicates and IC50 of >100 μM; a ++ symbol indicates and IC50 of 50-100 μM; a +++ symbol indicates and IC50 of 1-50 μM; and a ++++ symbol indicates and IC50 of <1.0 μM.

Q: `CC(C)(C)c1ccc(CN(C(=O)C2CCCN2C(=O)C(NC(=O)C=Cc2ccc(OP(=O)(O)O)cc2)C(C)(C)C)c2ccccc2)cc1` (stereo not drawn) [drawing 70: H, 4-t-butyl] was tested. Which IC50 did it give?
A: 1 to 50 µM

Same assay, conditions: Table 5; STAT6 binding

Q: With `CC(=O)NCc1cccc(CN(Cc2cccc(C(N)=O)c2)C(=O)C2CCCN2C(=O)C(NC(=O)C=Cc2ccc(OP(=O)(O)O)cc2)C(C)(C)C)c1` (stereo not drawn) [drawing 71: 3-CONH2,3-CH2NHAc] as the molecule, how does the IC50 read?
A: 1 to 50 µM

Q: `CC(=O)NCc1cccc(CN(Cc2ccc(C(N)=O)cc2)C(=O)C2CCCN2C(=O)C(NC(=O)C=Cc2ccc(OP(=O)(O)O)cc2)C(C)(C)C)c1` (stereo not drawn) [drawing 71: 4-CONH2,3-CH2NHAc] was tested. Which IC50 did it give?
A: < 1 µM

Q: `CC(=O)NCc1ccc(CN(Cc2ccc(C(N)=O)cc2)C(=O)C2CCCN2C(=O)C(NC(=O)C=Cc2ccc(OP(=O)(O)O)cc2)C(C)(C)C)cc1` (stereo not drawn) [drawing 71: 4-CONH2,4-CH2NHAc] was tested. Which IC50 did it give?
A: < 1 µM

Q: `CC(C)(C)C(NC(=O)C=Cc1ccc(OP(=O)(O)O)cc1)C(=O)N1CCCC1C(=O)N(Cc1ccc(C#N)cc1)Cc1ccc(C(N)=O)cc1` (stereo not drawn) [drawing 71: 4-CONH2,4-CN] was tested. Which IC50 did it give?
A: < 1 µM

Q: For `CC(C)(C)C(NC(=O)C=Cc1ccc(OP(=O)(O)O)cc1)C(=O)N1CCCC1C(=O)N(Cc1ccccc1)Cc1ccc(C(N)=O)cc1` (stereo not drawn) [drawing 71: 4-CONH2, H], which IC50 is on record?
A: < 1 µM
